Assay results as given in patent US20210380548A1, “Fused [1,2,4]Thiadiazine Derivatives Which Act as KAT Inhibitors of the MYST Family” (CTxT Pty Limited, priority 2017, published 2021).

Columns and labels:
[1] = test system: histone H2A.Z Lysine 7 acetylation (TIP60 mediated) in U2OS cells; assay: H2A.Z Lysine 7 Acetylation Biomarker Assay (384-well, U2OS); type: cell-based; conditions: Homo sapiens, serum free medium, 24 hours incubation
Method in brief: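 U2OS cells (3,000/well) were treated with compound for 24 h after a serum-free wash, then fixed. They were stained with anti-H2A.ZK7ac, an AlexaFluor 488 secondary and Hoechst. High-content imaging gave mean nuclear intensity per cell, converted to percent inhibition against on-plate controls, and IC50 came from a four-parameter logistic fit.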

MOZ-KAT6A = molecular target: T1, MOZ-KAT6A (Homo sapiens, UniProt Q92794, A567V); assay: Revised Acetyltransferase Biochemical Assay, KAT6A; conditions: Table 8 (MOZ-KAT6A), 1 μM Acetyl coenzyme A
T1 construct: encoding amino acid residues 507 to 778 (Uniprot Q92794-1) of human KAT6A; made in house; host or cells: E. coli BL21 DE3

[2] = test system: histone H3 Lysine 14 acetylation (HBO1 mediated) in U2OS cells; assay: Histone H3 Lysine 14 Acetylation Biomarker Assay (384-well, U2OS); type: cell-based; conditions: Homo sapiens, serum free medium, 24 hours incubation
Method in brief: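 U2OS cells in serum-free medium treated with compound 24 h; DMSO and 10 μM reference inhibitor as 0% and 100% controls. Fixed cells immunostained for H3K14ac (AlexaFluor 488) with Hoechst nuclear mask, imaged by high-content analysis; per-cell intensity converted to % inhibition, IC50 by four-parameter logistic fit.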

[3] = test system: histone H3K23 acetylation (KATE mediated) in U2OS cells; assay: Histone H3 Lysine 23 Acetylation Biomarker Assay (U2OS); type: cell-based; conditions: Homo sapiens, 96 well, 24 hours incubation
Method in brief: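 U2OS cells were treated with compound for 24 h, then fixed and immunostained for H3K23ac with Hoechst nuclear counterstain. Per-nucleus Alexa647 intensity was quantified by high-content imaging and converted to % inhibition against DMSO and 10 μM reference-inhibitor controls. IC50 was derived from a four-parameter logistic fit.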

MOF-KAT8 [4] = molecular target: T2, MOF-KAT8 (Homo sapiens, UniProt Q9H7Z6); assay: Revised Acetyltransferase Biochemical Assay, KAT8
T2 sequence (Q9H7Z6 177-447): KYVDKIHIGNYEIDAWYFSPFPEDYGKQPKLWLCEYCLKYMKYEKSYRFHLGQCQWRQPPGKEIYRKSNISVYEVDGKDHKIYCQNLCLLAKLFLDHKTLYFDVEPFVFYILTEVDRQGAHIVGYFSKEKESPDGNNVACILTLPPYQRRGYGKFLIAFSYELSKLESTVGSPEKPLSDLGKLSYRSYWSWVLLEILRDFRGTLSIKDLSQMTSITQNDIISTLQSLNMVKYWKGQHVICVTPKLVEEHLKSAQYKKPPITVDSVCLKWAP

HBO-KAT7 [5] = molecular target: T3, HBO-KAT7 (Homo sapiens, UniProt O95251); assay: Revised Acetyltransferase Biochemical Assay, KAT7; conditions: Table 9 (HBO-KAT7), 1 μM Acetyl coenzyme A
T3 construct: encoding amino acid residues 325 to 611 (Uniprot 095251-1) of human KAT7; made in house; host or cells: E. coli BL21 DE3 RIL

QKF-KAT6B = molecular target: T4, QKF-KAT6B (Homo sapiens, UniProt Q8WYB5); assay: Revised Acetyltransferase Biochemical Assay, KAT6B; conditions: 8 nM KAT6B, 1 μM AcCoA, 100 nM histone H3.1, 90 min
T4 construct: purchased SignalChem K315-381BG
Excerpt: KAT6B was obtained from SignalChem, catalog ID: K315-381BG

TIP60-KAT5 = molecular target: T5, TIP60-KAT5 (Homo sapiens, UniProt Q92993); assay: Revised Acetyltransferase Biochemical Assay, KAT5; conditions: 10 nM KAT5, 1 μM AcCoA, 100 nM histone H4, 90 min
T5 construct: encoding amino acid residues 2 to 461 (Uniprot Q92993-2) of human KAT5 isoform; made in house; host or cells: E. coli BL21 DE3

MOF-KAT8 [6] = molecular target: T2, MOF-KAT8; assay: Acetyltransferase biochemical assay (AlphaScreen), KAT8; conditions: Table 4 (MOF-KAT8); 0.4 μM Acetyl coenzyme A, histone H4, 20 nM enzyme
HBO-KAT7 [7] = molecular target: T3, HBO-KAT7; assay: Acetyltransferase biochemical assay (AlphaScreen), KAT7; conditions: Table 3 (HBO-KAT7); 0.4 μM Acetyl coenzyme A, histone H3.1, 40 nM enzyme

T5 sequence (Q92993 2-461 isoform Q92993-2): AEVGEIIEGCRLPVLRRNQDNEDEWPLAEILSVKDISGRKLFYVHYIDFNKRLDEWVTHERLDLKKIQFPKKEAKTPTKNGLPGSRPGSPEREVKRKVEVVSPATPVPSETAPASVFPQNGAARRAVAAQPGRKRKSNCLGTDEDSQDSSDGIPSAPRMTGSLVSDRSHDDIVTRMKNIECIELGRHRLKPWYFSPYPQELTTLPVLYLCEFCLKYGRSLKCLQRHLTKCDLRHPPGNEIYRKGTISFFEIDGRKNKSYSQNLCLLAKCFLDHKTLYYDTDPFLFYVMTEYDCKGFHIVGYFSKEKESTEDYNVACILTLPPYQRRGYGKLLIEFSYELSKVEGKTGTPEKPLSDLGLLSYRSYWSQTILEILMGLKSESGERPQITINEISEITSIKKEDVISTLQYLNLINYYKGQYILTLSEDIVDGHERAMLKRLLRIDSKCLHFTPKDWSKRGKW
T1 sequence (Q92794 507-778 A567V limits assumed): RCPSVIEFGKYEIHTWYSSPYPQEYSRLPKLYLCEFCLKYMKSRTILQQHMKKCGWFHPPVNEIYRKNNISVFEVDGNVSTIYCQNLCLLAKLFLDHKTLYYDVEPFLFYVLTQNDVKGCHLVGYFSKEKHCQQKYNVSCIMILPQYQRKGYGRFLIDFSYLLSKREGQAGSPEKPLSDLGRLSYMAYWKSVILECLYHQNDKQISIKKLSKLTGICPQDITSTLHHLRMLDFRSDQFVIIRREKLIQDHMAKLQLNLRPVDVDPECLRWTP
T3 sequence (O95251 with tags, fused parts or gaps): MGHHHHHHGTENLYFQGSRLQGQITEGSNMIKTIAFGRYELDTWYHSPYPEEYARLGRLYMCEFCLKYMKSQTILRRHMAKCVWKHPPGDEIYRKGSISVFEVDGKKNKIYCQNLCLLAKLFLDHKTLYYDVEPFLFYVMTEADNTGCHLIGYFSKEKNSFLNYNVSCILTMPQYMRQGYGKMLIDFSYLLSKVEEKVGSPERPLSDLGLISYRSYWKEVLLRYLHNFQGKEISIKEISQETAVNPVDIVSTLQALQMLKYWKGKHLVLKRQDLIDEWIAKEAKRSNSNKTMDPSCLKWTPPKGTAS
T4 sequence (Q8WYB5 whole entry): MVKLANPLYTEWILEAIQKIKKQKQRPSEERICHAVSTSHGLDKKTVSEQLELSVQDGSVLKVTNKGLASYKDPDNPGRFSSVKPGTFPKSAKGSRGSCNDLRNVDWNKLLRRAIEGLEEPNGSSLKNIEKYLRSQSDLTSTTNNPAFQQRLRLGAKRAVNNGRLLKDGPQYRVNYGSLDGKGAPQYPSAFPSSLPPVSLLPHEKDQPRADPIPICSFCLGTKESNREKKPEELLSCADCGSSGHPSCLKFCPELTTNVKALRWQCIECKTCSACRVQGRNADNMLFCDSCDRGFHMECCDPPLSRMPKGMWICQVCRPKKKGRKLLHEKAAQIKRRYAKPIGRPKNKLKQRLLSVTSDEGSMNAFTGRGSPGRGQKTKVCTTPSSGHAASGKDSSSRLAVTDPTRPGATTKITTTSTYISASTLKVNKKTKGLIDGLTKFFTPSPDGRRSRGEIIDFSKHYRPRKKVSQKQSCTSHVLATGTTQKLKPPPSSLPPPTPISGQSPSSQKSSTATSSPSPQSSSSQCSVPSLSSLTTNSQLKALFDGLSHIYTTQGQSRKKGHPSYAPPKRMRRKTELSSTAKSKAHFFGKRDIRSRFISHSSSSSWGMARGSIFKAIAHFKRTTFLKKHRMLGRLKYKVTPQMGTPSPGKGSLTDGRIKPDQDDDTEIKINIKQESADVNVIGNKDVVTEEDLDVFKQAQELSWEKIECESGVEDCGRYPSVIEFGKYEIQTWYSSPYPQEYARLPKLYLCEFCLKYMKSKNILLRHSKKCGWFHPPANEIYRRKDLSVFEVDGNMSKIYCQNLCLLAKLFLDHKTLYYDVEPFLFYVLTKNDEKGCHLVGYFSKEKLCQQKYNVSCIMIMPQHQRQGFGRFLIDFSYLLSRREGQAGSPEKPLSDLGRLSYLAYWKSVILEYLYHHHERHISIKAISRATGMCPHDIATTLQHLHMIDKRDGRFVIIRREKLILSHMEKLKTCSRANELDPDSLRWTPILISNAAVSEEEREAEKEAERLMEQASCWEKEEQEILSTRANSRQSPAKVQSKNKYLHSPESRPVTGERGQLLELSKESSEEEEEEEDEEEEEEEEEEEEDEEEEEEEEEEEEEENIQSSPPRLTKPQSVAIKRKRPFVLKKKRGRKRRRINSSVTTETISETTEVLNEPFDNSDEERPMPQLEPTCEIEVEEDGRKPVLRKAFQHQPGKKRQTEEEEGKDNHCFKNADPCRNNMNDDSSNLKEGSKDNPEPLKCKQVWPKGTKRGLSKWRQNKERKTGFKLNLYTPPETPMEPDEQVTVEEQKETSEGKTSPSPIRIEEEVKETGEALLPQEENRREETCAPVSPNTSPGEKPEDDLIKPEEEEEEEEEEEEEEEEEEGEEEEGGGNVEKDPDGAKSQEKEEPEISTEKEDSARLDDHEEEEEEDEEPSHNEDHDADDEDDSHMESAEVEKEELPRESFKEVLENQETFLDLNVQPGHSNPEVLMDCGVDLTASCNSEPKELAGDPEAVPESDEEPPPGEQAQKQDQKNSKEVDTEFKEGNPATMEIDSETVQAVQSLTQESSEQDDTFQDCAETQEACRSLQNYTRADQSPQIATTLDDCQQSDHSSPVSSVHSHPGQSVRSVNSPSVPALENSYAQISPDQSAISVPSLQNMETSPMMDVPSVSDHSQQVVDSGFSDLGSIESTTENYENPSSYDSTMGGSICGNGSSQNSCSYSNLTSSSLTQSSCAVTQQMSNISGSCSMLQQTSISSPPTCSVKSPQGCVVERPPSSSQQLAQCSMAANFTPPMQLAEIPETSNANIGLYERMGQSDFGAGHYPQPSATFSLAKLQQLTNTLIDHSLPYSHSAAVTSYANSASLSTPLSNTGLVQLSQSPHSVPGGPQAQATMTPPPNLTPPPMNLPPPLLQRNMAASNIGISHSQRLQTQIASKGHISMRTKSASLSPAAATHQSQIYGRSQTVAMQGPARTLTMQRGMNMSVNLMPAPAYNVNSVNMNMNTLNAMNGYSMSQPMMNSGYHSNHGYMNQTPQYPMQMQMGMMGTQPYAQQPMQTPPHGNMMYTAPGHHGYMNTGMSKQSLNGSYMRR

Compound | IC50 [1] [µM] | IC50 (MOZ-KAT6A) [nM] | IC50 [2] [nM] | IC50 [3] [nM] | IC50 (MOF-KAT8 [4]) [µM] | IC50 (HBO-KAT7 [5]) [nM] | IC50 (QKF-KAT6B) [nM] | IC50 (TIP60-KAT5) [nM] | IC50 (MOF-KAT8 [6]) [µM] | IC50 (HBO-KAT7 [7]) [nM]
O=C(NCC(c1ccccc1)c1nccs1)C1=Nc2ccc(Cl)cc2S(=O)(=O)N1 (stereo not shown) [Example 166] | 5.35 | 7 | 611 | 93 | 36.8 | 183 | 72 | 714 | – | –
O=C(NCC(c1ccccc1)c1nncs1)C1=Nc2ccc(I)cc2S(=O)(=O)N1 (stereo not shown) [Example 168] | 8.85 | 8 | 6440 | 525 | 26.5 | 621 | 37 | 458 | 3.39 | –
O=C(NCC(c1ccccc1)c1nnc(CC(F)(F)F)o1)C1=Nc2ccc(I)cc2S(=O)(=O)N1 (stereo not shown) [Example 181] | > 40 | 32 | 35300 | > 10000 | 31.2 | 320 | 77 | 123 | 104 | –
O=C(NCC(c1ccccc1)c1ncco1)C1=Nc2ccc(Cl)cc2S(=O)(=O)N1 (stereo not shown) [Example 182] | 8.1 | 6 | 488 | 84 | 24.5 | 237 | 59 | 284 | 50 | –
O=C(NCCC1CCCCC1)C1=Nc2ccc(-c3c[nH]nn3)cc2S(=O)(=O)N1 [Example 201] | > 40 | 268 | > 40000 | > 10000 | – | 56500 | 5260 | 43700 | – | –
CN(CC(c1ccccc1)c1ncco1)C(=O)C1=Nc2ccc(I)cc2S(=O)(=O)N1 (stereo not shown) [Example 203] | > 40 | 427 | 2260 | > 10000 | 115 | 1670 | 3310 | 3750 | 103 | –
O=C(NCC(c1ccccc1)c1ncco1)C1=Nc2ccc(-c3c[nH]nn3)cc2S(=O)(=O)N1 (stereo not shown) [Example 213, N-(2-(Oxazol-2-yl)-2-phenylethyl)-7-(1H-1,2,3-triazol-4-yl)-2H-benzo[e][1,2,4]thiadiazine-3-carboxamide 1,1-dioxide] | 29.5 | 2 | 4940 | 116 | 15.2 | 111 | 22 | 193 | 3.54 | –
COCCC(CNC(=O)C1=Nc2ccc(I)cc2S(=O)(=O)N1)c1ccccc1 (stereo not shown) [Example 220, 7-Iodo-N-(4-methoxy-2-phenylbutyl)-2H-benzo[e][1,2,4]thiadiazine-3-carboxamide 1,1-dioxide] | 7.81 | 20 | 917 | 540 | 26.8 | 214 | 134 | 1430 | – | –
Cc1cc(O)cc(C(CNC(=O)C2=Nc3ccc(Cl)cc3S(=O)(=O)N2)c2ncco2)c1 (stereo not shown) [Example 221, 7-Chloro-N-(2-(3-hydroxy-5-methylphenyl)-2-(oxazol-2-yl)ethyl)-2H-benzo[e][1,2,4]thiadiazine-3-carboxamide 1,1-dioxide] | 6.87 | 572 | 1660 | > 10000 | – | 72 | 4340 | 1570 | – | –

Compounds with a lower IC50 [1], results first:

IC50 [1] [µM] | IC50 (MOZ-KAT6A) [nM] | IC50 [2] [nM] | IC50 [3] [nM] | IC50 (MOF-KAT8 [4]) [µM] | IC50 (HBO-KAT7 [5]) [nM] | IC50 (QKF-KAT6B) [nM] | IC50 (TIP60-KAT5) [nM] | IC50 (MOF-KAT8 [6]) [µM] | IC50 (HBO-KAT7 [7]) [nM] | Compound
1.52 | 17 | 892 | 453 | 14.7 | 115 | 117 | 221 | 9.78 | – | O=C(NCC(c1cccc(Cl)c1)c1ncco1)C1=Nc2ccc(I)cc2S(=O)(=O)N1 (stereo not shown) [Example 163]
0.516 | 4 | 349 | 57 | 8.4 | 62 | 27 | 56 | 6.48 | – | O=C(NCC(c1ccccc1)c1nccs1)C1=Nc2ccc(I)cc2S(=O)(=O)N1 (stereo not shown) [Example 167]
2.09 | 5 | 2870 | > 10000 | 6.1 | 41 | 281 | 25 | 5.13 | – | O=C(NCCc1ccccc1-c1n[nH]c(=O)o1)C1=Nc2ccc(I)cc2S(=O)(=O)N1 [Example 172]
1.1 | 5 | 219 | 112 | 9.66 | 28 | 88 | 29 | 10.4 | – | O=C(NCC(c1ncco1)c1ccccc1OC(F)F)C1=Nc2ccc(I)cc2S(=O)(=O)N1 (stereo not shown) [Example 179]
0.882 | 80 | 95 | 1010 | 78.6 | 25 | 991 | 818 | – | – | COc1cc(C)cc(C(CNC(=O)C2=Nc3ccc(I)cc3S(=O)(=O)N2)c2ncco2)c1 (stereo not shown) [Example 196, 7-iodo-N-(2-(3-methoxy-5-methylphenyl)-2-(oxazol-2-yl)ethyl)-2H-benzo[e][1,2,4]thiadiazine-3-carboxamide 1,1-dioxide]
4.44 | 4 | 221 | 953 | 5.72 | 20 | 65 | 25 | 8.74 | – | O=C(NCC(c1cccc(O)c1)c1ncco1)C1=Nc2ccc(I)cc2S(=O)(=O)N1 (stereo not shown) [Example 215, N-(2-(3-Hydroxyphenyl)-2-(oxazol-2-yl)ethyl)-7-iodo-2H-benzo[e][1,2,4]thiadiazine-3-carboxamide 1,1-dioxide]
4.52 | 100 | 3880 | > 10000 | 6.53 | 143 | 3240 | 306 | – | – | O=C(NCC(F)(F)c1ccccc1OC(F)F)C1=Nc2ccc(I)cc2S(=O)(=O)N1 [Example 231, N-(2-(2-(difluoromethoxy)phenyl)-2,2-difluoroethyl)-7-iodo-2H-benzo[e][1,2,4]thiadiazine-3-carboxamide 1,1-dioxide]
1.99 | 13 | 3200 | – | 9.25 | 14 | 254 | 154 | 6.13 | 38 | Cc1cccc(C(CNC(=O)C2=Nc3ccc(I)cc3S(=O)(=O)N2)c2ncco2)c1 (stereo not shown) [Example 233, 7-iodo-N-(2-(oxazol-2-yl)-2-(m-tolyl)ethyl)-2H-benzo[e][1,2,4]thiadiazine-3-carboxamide 1,1-dioxide]
